Results as given in US6962713B2, “Spot-on formulations for combating parasites” (Merial, priority 1919, dated 2005).
Values joined by “and” are separate entries in the source; they are usually repeats but may differ in a detail not shown here. Equal entries are not always repeated.

Columns and labels:
[1] = Plasma kinetics of ivermectin after oral administration of Cardomec to dogs; assay type: in vivo, dog
Experimental: Five male Beagle dogs received a dose of approximately 6 μg.kg^−1 of ivermectin, i.e., one 68 μg Cardomec® tablet per dog. The animals were fasted prior to administration and up to 6 hours after treatment to prevent a possible interaction with food.
(§1) Blood samples were collected at intervals up to 28 days post-dosing. The determination of ivermectin in dog plasma was carried out by HPLC using fluorescence detection after derivatization. The limit of quantification was 100 pg.ml^−1.

[2] = Plasma kinetics of ivermectin after spot-on application 250 μg.kg^−1 in combination with fipronil to cats; assay type: in vivo, cat; conditions: spot-on 0.25% ivermectin + 10% fipronil, 5 cats
Experimental: This study was undertaken in order to assess the pharmacokinetic behaviour of ivermectin after a topical (spot-on) application of a formulation containing 0.25% of ivermectin and 10% of fipronil to the cat. The formulation was as follows: […]
Five male european cats were treed with the spot-on formulation at a dose of 0.1 ml.kg^−1 (i.e. 250 μg.kg^−1 of ivermectin and 10 mg.kg^−1 of fipronil).
Blood samples were collected at intervals up to 42 days post-treatment.
The determination of ivermectin in cat plasma was carried out by a validated HPLC method using fluorescence detection, with a limit of quantification of 100 pg.ml^−1.

[3] = test system: gastrointestinal nematodes; conditions: Ivomec subcutaneous, 400 μg.kg^−1 of ivermectin, dog; known; cited from earlier work
[4] = Plasma kinetics of ivermectin after topical (spot-on) application 250 μg.kg in combination with fipronil to dogs; assay type: in vivo, dog; conditions: spot-on 0.25% ivermectin + 10% fipronil, 5 dogs
Experimental: This study was undertaken in order to assess the pharmacokinetic behaviour of ivermectin and fipronil after a topical (spot-on) application of ivermectin in combination with fipronil to the dog.
Five male Beagle dogs were applied a spot-on formulation combining ivermectin and fipronil at a dose of 0.1 ml.kg^−1, i.e. 250 μg.kg and 10 mg.kg^−1 of ivermectin and fipronil, respectively. Blood samples were collected at intervals up to 28 days post-treatment. The determination of ivermectin in dog plasma was carried out by HPLC, using fluorescence detection, with a limit of quantification of 100 pg.ml^−1. The determination of fipronil and its sulfone metabolite (RM1602) was carried out by HPLC with UV detection with a limit of quantification of 20 ng.ml^−1 for fipronil and RM1602.
The formulation tested was as follows: […]

heartworms = conditions: Cardomec oral, 6 μg.kg^−1 of ivermectin, dog; known; cited from earlier work
[5] = Plasma kinetics of ivermectin after subcutaneous injection of Ivomec to dogs; assay type: in vivo, dog; conditions: Ivomec subcutaneous 400 μg.kg^−1, 5 dogs; mean
Experimental: This study was conducted in order to assess the pharmacokinetics of ivemectin in the dog after subcutaneous administration of Ivomec® at a dose of 400 μg.kg^−1 of ivermectin which is known to be effective on gastrointestinal nematodes and to have a route of reference for further development.
as §1, with “Five male Beagle dogs were injected a subcutaneous dose of 400 μg.kg^−1 of ivermectin. Blood” for “Blood”, “56” for “28”, “HPLC,” for “HPLC”

[6] = Cardomec oral 6 μg.kg^−1, 5 fasted dogs, mean
[7] = Cardomec oral 6 μg.kg^−1, 5 fasted dogs, range over dogs
[8] = Cardomec oral 6 μg.kg^−1, fasted dogs, individual dogs

ivermectin
AUC(0-t), Mean [1, 6]: 1534 pg·days/mL
AUC(0-∞), Mean [1, 6]: 1859 pg·days/mL
AUC, mean [1, 6]: 44.604 ng·h/mL
Cmax, Mean [1, 6]: 1.362 ng/mL
AUC(0-t), Range [1, 7]: [187-3246] pg.d.ml^−1
AUC(0-∞), Range [1, 7]: [382-3789] pg.d.ml^−1
Plasma concentrations of ivermectin, Mean ([1]; Cardomec oral 6 μg.kg^−1, fasted dogs, 0 h, mean of 5 dogs): BLQ (Below the Limit of Quantification (100 pg.ml^−1))
Plasma concentrations of ivermectin, Mean ([1]; Cardomec oral 6 μg.kg^−1, fasted dogs, 0.75 h, mean of 5 dogs (BLQ taken as 0)): 0.119 ng/mL
Plasma concentrations of ivermectin, Mean ([1]; Cardomec oral 6 μg.kg^−1, fasted dogs, 1.5 h, mean of 5 dogs (BLQ taken as 0)): 0.536 ng/mL
Plasma concentrations of ivermectin ([1]; Cardomec oral 6 μg.kg^−1, fasted dogs, 2 h, individual dogs): 1132 pg.ml^−1 and 674 pg.ml^−1 and BLQ (Below the Limit of Quantification (100 pg.ml^−1)) and 1817 pg.ml^−1 and 264 pg.ml^−1
Plasma concentrations of ivermectin, Mean ([1]; Cardomec oral 6 μg.kg^−1, fasted dogs, 2 h, mean of 5 dogs (BLQ taken as 0)): 0.777 ng/mL
Plasma concentrations of ivermectin, Mean ([1]; Cardomec oral 6 μg.kg^−1, fasted dogs, 3 h, mean of 5 dogs): 1.199 ng/mL
Plasma concentrations of ivermectin, Mean ([1]; Cardomec oral 6 μg.kg^−1, fasted dogs, 4 h, mean of 5 dogs): 1.098 ng/mL
Plasma concentrations of ivermectin, Mean ([1]; Cardomec oral 6 μg.kg^−1, fasted dogs, 6 h, mean of 5 dogs): 0.956 ng/mL
Plasma concentrations of ivermectin, Mean ([1]; Cardomec oral 6 μg.kg^−1, fasted dogs, 8 h, mean of 5 dogs): 0.769 ng/mL
Plasma concentrations of ivermectin, Mean ([1]; Cardomec oral 6 μg.kg^−1, fasted dogs, 10 h, mean of 5 dogs): 0.798 ng/mL
Plasma concentrations of ivermectin, Mean ([1]; Cardomec oral 6 μg.kg^−1, fasted dogs, 12 h, mean of 5 dogs): 0.783 ng/mL
Plasma concentrations of ivermectin, Mean ([1]; Cardomec oral 6 μg.kg^−1, fasted dogs, 24 h, mean of 5 dogs): 0.525 ng/mL
Plasma concentrations of ivermectin, Mean ([1]; Cardomec oral 6 μg.kg^−1, fasted dogs, 32 h, mean of 5 dogs (BLQ taken as 0)): 0.338 ng/mL
Plasma concentrations of ivermectin, Mean ([1]; Cardomec oral 6 μg.kg^−1, fasted dogs, D 2, mean of 5 dogs (ND included as BLQ = 0)): 0.268 ng/mL
Plasma concentrations of ivermectin, Mean ([1]; Cardomec oral 6 μg.kg^−1, fasted dogs, D 3, mean of 5 dogs (ND included as BLQ = 0)): 0.173 ng/mL
Plasma concentrations of ivermectin, Mean ([1]; Cardomec oral 6 μg.kg^−1, fasted dogs, D 4, mean of 5 dogs (ND, BLQ taken as 0)): 0.108 ng/mL
Plasma concentrations of ivermectin, Mean ([1]; Cardomec oral 6 μg.kg^−1, fasted dogs, D 5, mean of 5 dogs, one value above the limit of quantification): BLQ* (Below the Limit of Quantification (100 pg.ml^−1))
Plasma concentrations of ivermectin, Mean ([1]; Cardomec oral 6 μg.kg^−1, fasted dogs, D 7, mean of 5 dogs, one value above the limit of quantification): BLQ* (Below the Limit of Quantification (100 pg.ml^−1))
Plasma concentrations of ivermectin, Mean ([1]; Cardomec oral 6 μg.kg^−1, fasted dogs, D 9, mean of 5 dogs): BLQ (Below the Limit of Quantification (100 pg.ml^−1))
Plasma concentrations of ivermectin, Mean ([1]; Cardomec oral 6 μg.kg^−1, fasted dogs, D 14, mean of 5 dogs): BLQ (Below the Limit of Quantification (100 pg.ml^−1))
Plasma concentrations of ivermectin, Mean ([1]; Cardomec oral 6 μg.kg^−1, fasted dogs, D 21, mean of 5 dogs): BLQ (Below the Limit of Quantification (100 pg.ml^−1))
AUC(0-t) [1, 8]: 3246 pg·days/mL and 1545 pg·days/mL and 743 pg·days/mL and 1949 pg·days/mL and 187 pg·days/mL
AUC(0-∞) [1, 8]: 3789 pg·days/mL and 1813 pg·days/mL and 1027 pg·days/mL and 2282 pg·days/mL and 382 pg·days/mL
Cmax [1, 8]: 2.964 ng/mL and 0.911 ng/mL and 0.557 ng/mL and 1.955 ng/mL and 0.422 ng/mL
tmax [1, 8]: 3 h (2×) and 12 h (2×) and 4 h
t½ [1, 8]: 64.5 h and 33.5 h and 37.5 h and 39.2 h and 26.0 h and 64.6 h and 33.6 h and 37.4 h and 39.1 h and 25.9 h
t1/2 β, Mean ([2]; 250 μg.kg^−1 ivermectin, harmonic mean): 9.1 d and 9.07* d
AUC (0-Clast), Mean ([2]; 250 μg.kg^−1 ivermectin, mean): 23441 pg·days/mL
AUC(0-∞), Mean ([2]; 250 μg.kg^−1 ivermectin, mean): 26546 pg·days/mL
Tlast, Mean ([2]; 250 μg.kg^−1 ivermectin, mean): 35 days
tmax, Mean ([2]; 250 μg.kg^−1 ivermectin, mean): 134 h
AUC(0-∞), Range ([2]; 250 μg.kg^−1 ivermectin, range over cats): [14199-52232] pg.d.ml^−1
Cmax, Mean ([2]; 0.1 ml.kg^−1 (250 μg.kg^−1 ivermectin), mean): 1.465 ng/mL
effective on gastrointestinal nematodes [3]: effective
t½, Mean ([4]; 250 μg.kg ivermectin, harmonic mean): 132 h
AUC(0-t), Mean ([4]; 250 μg.kg ivermectin, mean): 19218 pg·days/mL
AUC(0-∞), Mean ([4]; 250 μg.kg ivermectin, mean): 22842 pg·days/mL
Tlast, Mean ([4]; 250 μg.kg ivermectin, mean): 21 days
tmax, Mean ([4]; 250 μg.kg ivermectin, mean): 110 h
Cmax, Mean ([4]; 0.1 ml.kg^−1 (250 μg.kg ivermectin), mean): 1.618 ng/mL
effective on heartworms (heartworms): 100%
AUC(0-t), Mean [5]: 226900 pg·days/mL
